Reference: US20240279684A1, “CYTOSOLIC DELIVERY OF GENOME EDITING TOOLS” (SAPREME TECHNOLOGIES B.V., priority 2021, published 2024)

Tested on: Neuro-2A-cells
Experiment: Slc knock-out / GFP-Puromycin donor knock-in co-transfection, GFP fluorescence
Type: cell-based, murine
Conditions: for transfection efficiency: PDD (Cas9-gRNA(Slc26a4)-DNA, GFP-Puromycin-LDS)
Procedure: For further knock-out experiments, GE1741 and Neuro-2A cells were tested. The integration of a linear donor sequence (LDS) containing the gene for GFP into the genomic DNA was assessed using three kits from Origene (Herford, Germany): The Slcl9a3-KN2.0 (CAT #: KN515911), the Slc25a24-KN2.0 (CAT #: KN515970) and the Slc26a4-KN2.0 (CAT #: KN516006), which kits all three were mouse gene knock-out kits via CRISPR, non-homology mediated. The kits contained all-in-one plasmids, coding for Cas9 and the target specific sgRNAs. The Slc26a4 kit targeted the solute carrier family 26, member 4 in the chromosome 12. The indel efficiency by targeting the locus Slc26a4 could be already shown in Neuro-2A cells (Ryu et al., 2018), and for the linear-donor-kits (Slc19a3, Slc25a24) two different sgRNA-sequences were tested. […] Thus, for the knock-out of different solute carrier genes (Sic) in Neuro-2A-cells via CRISPR/Cas9, neuro-2A-cells were transfected with different kits in order to compare the efficiency of different targets (knocked-out gene) and different integration techniques (see FIG. 8 and FIG. 10).
FIG. 9A-D Transfection efficiency of saponin-mediated PDD (Cas9-gRNA (Slc26a4)-DNA, LDS-DNA)-transfections. A: Neuro-2A-cells were transfected with PDD-nanoplexes (Cas9-gRNA (Slc26a4)-DNA, GFP-Puromycin-LDS, 4:1 and 8:1 mass ratio when the mass of the peptide and the DNA are considered), with and without GE1741-Co-administration. The application of GE1741 led to a transfection efficiency of 20% and 30%, respectively, for the 4:1 and 8:1 mass ratio. Lipofectamin3000 served as positive control. B-D: Distinct fluorescence intensity increase of Neuro-2A-cells after saponin-mediated GFP-gene knock-in. n≥3; *: significant difference compared to the saponin-free transfection (only nuclease), U-test was performed. FIG. 9B: negative control; FIG. 9C: PDD(Cas9-gRNA(Slc26a4)-DNA, Puro-GFP-LDS), 4:1); FIG. 9D: PDD(Cas9-gRNA(Slc26a4)-DNA, Puro-GFP-LDS), 4:1)+GE1741.
FIG. 11A, B. Knockout of different solute carrier (Sic) in Neuro-2A-cells—homologous recombination vs. non-homologous recombination. Neuro-2A-cells were transfected using NHR kits and using HR kits in order to compare the efficiency for different targets and different integration techniques, under influence of the absence or presence of saponin GE1741 in the K16-peptide comprising nanoplexes. […] (A) co-transfection of plasmid DNA comprising nucleic acids encoding for Cas9 and gRNA(Slc26a4), and LDS DNA encoding for puromycin and green fluorescent protein (Puro-GFP-LDS). (B) co-transfection of plasmid DNA comprising nucleic acids encoding for Cas9 and gRNA(Slc), and donor template DNA encoding for puromycin and green fluorescent protein (Puro-GFP-DS) provided as DNA vector.
The co-transfection of Neuro-2A-cells with the plasmid DNA encoding for the Cas9 and the gRNA, and the LDS encoding for the GFP and the Puromycin, was done in a poly-lysine K16 peptide—nucleic acid ratio of 4:1 and 8:1, and plasmid DNA and LDS was complexed equally (500 ng/well). Transfections of cells were performed with and without GE1741 in the cell culture medium in which the cells were cultured. The transfection efficiency under influence of the absence or presence of the saponin was compared to transfection under influence of the presence of Lipofectamin3000 during transfection of the cells.
The integration of donor sequence into the genome can be performed via non-homologous recombination (‘NHR’) and homologous recombination (‘HR’). […]

## CC(=O)OC1C(C)OC(OC2C(C)OC(OC(=O)C34CCC(C)(C)CC3C3=CCC5C6(C)CCC(OC7OC(C(=O)O)C(O)C(OC8OCC(O)C(O)C8O)C7OC7OC(CO)C(O)C(O)C7O)C(C)(C=O)C6CCC5(C)C3(C)CC4O)C(OC3OC(C)C(OC4OCC(O)C(OC5OCC(O)C(O)C5O)C4O)C(O)C3O)C2O)C(O)C1OC(C)=O (centres unmarked) [GE1741]
HR-knock-in kits (Slc4a4, Slc11a2), circular donor
  GFP expression (in words): no GFP expression
NHR-knock-in kits with LDS (Slc26a4, Slc19a3, Slc25a24), U-test
  transfection efficiency vs saponin-free transfection (in words): significant increase of transfection efficiency
4:1 mass ratio
  transfection efficiency: 20%
8:1 mass ratio
  transfection efficiency: 30%
co-transfection Cas9-gRNA plasmid + LDS, 500 ng/well each, ratio 4:1 and 8:1
  transfected cells expressing fluorescence: over 30%
